Reference: ChEMBL document CHEMBL4152208, “Synthesis and structure-activity relationships of quinolinone and quinoline-based P2X7 receptor antagonists and their anti-sphere formation activities in glioblastoma cells” (Eur J Med Chem, 2018)
≈ marks a conversion by molar mass, not a printed value. Calls of active or inactive are those of the source. No cut-off for these calls is given here.

How the values were obtained:
[1] = molecular target: T1, P2X purinoceptor 7 (Homo sapiens) (UniProt Q99572); experiment: Antagonist activity at human P2X7 receptor expressed in HEK293 cells assessed as inhibition of BzATP-induced EtBr uptake at 10 uM after 2 hrs by fluorescence assay relative to control; assay type: cell-based
T1 sequence (whole entry): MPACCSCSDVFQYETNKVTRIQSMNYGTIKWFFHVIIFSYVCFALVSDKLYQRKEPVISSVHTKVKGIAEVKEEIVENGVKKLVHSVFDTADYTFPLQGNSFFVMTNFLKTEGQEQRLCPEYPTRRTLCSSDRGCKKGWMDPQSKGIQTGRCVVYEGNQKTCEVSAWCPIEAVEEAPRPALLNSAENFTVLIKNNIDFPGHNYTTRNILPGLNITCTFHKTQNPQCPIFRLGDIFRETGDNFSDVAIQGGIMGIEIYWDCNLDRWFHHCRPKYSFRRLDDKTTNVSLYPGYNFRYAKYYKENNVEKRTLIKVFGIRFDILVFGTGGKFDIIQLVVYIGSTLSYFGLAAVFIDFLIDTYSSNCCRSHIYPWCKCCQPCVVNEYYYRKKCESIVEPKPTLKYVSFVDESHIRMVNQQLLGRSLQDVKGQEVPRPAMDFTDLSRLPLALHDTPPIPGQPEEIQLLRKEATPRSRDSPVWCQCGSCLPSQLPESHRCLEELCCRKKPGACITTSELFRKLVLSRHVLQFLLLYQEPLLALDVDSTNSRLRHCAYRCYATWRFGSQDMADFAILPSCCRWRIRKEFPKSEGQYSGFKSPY

[2] = molecular target: T1, P2X purinoceptor 7 (Homo sapiens); experiment: Antagonist activity at human P2X7 receptor expressed in HEK293 cells assessed as inhibition of BzATP-induced EtBr uptake at 1 uM after 2 hrs by fluorescence assay relative to control; assay type: cell-based
P2X purinoceptor 7 = molecular target: T2, P2X purinoceptor 7 (Homo sapiens, UniProt Q99572); experiment: Antagonist activity at P2X7 in LPS/IFN gamma differentiated human THP-1 cells assessed as inhibition of BzATP-induced IL-1beta release preincubated for 30 mins followed by BzATP stimulation for 30 mins by ELISA; assay type: cell-based
T2 sequence (Q99572 whole entry): T1 sequence (whole entry)

[3] = molecular target: T3, P2X purinoceptor 1 (Homo sapiens) (UniProt P51575); experiment: Antagonist activity at human P2X1 receptor expressed in 1321N1 cells assessed as inhibition of ATP-induced calcium flux at 1 uM measured for 30 secs at 0.4 secs intervals by Flou-4-AM dye based fluorescence assay relative to control; assay type: cell-based
T3 sequence (whole entry): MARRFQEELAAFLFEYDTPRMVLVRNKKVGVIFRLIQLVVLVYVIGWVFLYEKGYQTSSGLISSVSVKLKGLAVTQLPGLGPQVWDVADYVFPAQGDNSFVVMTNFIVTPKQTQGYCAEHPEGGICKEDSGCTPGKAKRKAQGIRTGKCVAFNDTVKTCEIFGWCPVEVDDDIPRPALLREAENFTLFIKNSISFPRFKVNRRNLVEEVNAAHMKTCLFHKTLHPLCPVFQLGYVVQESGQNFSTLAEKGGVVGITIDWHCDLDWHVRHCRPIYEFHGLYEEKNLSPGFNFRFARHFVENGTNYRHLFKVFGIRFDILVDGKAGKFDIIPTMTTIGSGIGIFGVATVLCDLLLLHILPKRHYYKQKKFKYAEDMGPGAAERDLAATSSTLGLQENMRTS

P2X purinoceptor 3 = molecular target: T4, P2X purinoceptor 3 (Homo sapiens, UniProt P56373); experiment: Antagonist activity at human P2X3 receptor expressed in 1321N1 cells assessed as inhibition of ATP-induced calcium flux measured for 30 secs at 0.4 secs intervals by Flou-4-AM dye based fluorescence assay; assay type: cell-based
T4 sequence (P56373 whole entry): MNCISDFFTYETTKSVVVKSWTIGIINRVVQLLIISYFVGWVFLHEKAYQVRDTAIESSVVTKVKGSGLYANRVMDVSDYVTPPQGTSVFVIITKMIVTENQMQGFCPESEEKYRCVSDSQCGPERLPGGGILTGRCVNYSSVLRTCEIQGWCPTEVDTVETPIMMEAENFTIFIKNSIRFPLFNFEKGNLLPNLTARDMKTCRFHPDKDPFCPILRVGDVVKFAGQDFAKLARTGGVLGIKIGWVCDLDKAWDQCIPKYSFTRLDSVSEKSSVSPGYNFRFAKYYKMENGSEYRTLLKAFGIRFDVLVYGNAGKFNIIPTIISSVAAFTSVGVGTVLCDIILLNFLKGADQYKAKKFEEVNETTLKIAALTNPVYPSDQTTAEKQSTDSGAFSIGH

[4] = molecular target: T5, P2X purinoceptor 4 (Homo sapiens) (UniProt Q99571); experiment: Antagonist activity at human P2X4 receptor expressed in 1321N1 cells assessed as inhibition of ATP-induced calcium flux at 1 uM measured for 30 secs at 0.4 secs intervals by Flou-4-AM dye based fluorescence assay relative to control; assay type: cell-based
T5 sequence (whole entry): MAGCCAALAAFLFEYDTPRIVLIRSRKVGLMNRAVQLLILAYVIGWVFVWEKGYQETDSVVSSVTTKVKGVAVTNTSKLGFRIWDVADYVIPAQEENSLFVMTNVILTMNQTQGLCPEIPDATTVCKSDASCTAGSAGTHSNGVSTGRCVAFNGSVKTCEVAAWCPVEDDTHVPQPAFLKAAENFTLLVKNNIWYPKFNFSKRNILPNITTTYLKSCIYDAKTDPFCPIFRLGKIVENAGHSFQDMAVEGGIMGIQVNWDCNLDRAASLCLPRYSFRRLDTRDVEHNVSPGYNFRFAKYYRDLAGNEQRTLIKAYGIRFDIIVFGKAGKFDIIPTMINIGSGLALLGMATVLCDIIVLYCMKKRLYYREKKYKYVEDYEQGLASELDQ

Homo sapiens = organism: Homo sapiens; experiment: Inhibition of neurosphere formation in human TS15-88 cells assessed as decrease in surface area of sphere at 50 uM after 5 days by microscopic analysis; assay type: functional, cell-based
[5] = Reduction of […] mRNA expression in human TS15-88 cells after 72 hrs by qRT-PCR analysis relative to control; assay type: functional; set-up: scale not given: the % may be the effect or the level left
[6] = Increase in MYC mRNA expression in human TS15-88 cells after 72 hrs by qRT-PCR analysis relative to control; assay type: functional
[7] = Increase in CD133 mRNA expression in human TS15-88 cells after 72 hrs by qRT-PCR analysis relative to control; assay type: functional
[8] = Cytotoxicity against HEK293 cells expressing human P2X7 receptor assessed as cell survival at 10 uM by MTT assay relative to control; assay type: cell-based; details: read-out: Survival
[9] = Drug level in zebrafish blood at 10 mg/kg, po administered via gavage measured 0.5 hrs post compound administration by LC-MS/MS analysis; assay type: ADME, organism-based, Danio rerio; details: read-out: Drug uptake
[10] = Drug level in zebrafish brain at 10 mg/kg, po administered via gavage measured 0.5 hrs post compound administration by LC-MS/MS analysis; assay type: ADME, organism-based, Danio rerio; details: read-out: Drug uptake
[11] = Ratio of drug level in zebrafish brain to blood at 10 mg/kg, po administered via gavage measured 0.5 hrs post compound administration by LC-MS/MS analysis; assay type: ADME, organism-based, Danio rerio
[12] = Equilibrium solubility of the compound in DMSO after 16 hrs; assay type: physicochemical
[13] = Metabolic stability in rat liver microsomes assessed as parent compound remaining at 1 uM up to 30 mins in presence of NADPH by LC-MS/MS analysis; assay type: ADME, microsome; details: read-out: Stability

Structure (SMILES): O=C(CC12CC3CC(CC(C3)C1)C2)Nc1cccc2nc(Cl)ccc12
- inhibition [1]: 97%
- inhibition [2]: 89%
- IC50 (P2X purinoceptor 7): 7 nM
- inhibition [3]: 13%
- IC50 (P2X purinoceptor 3): Not Active
- inhibition [4]: 4%
- inhibition (Homo sapiens): Active
- Activity [5]: 41%
- Activity [6]: 41%
- Activity [7]: 30%
- viability at 10 µM [8]: 98%
- concentration at 0.5 h [9]: 235 ng/mL
- concentration at 0.5 h [10]: 425 ng/g
- Kp at 0.5 h [11]: 2.03
- solubility at 16 h [12]: 15.6 µM (≈ 5.54 µg/mL)
- remaining at 0.5 h, 1 µM [13]: 0.06%
